Results from patent US20200165312A1, “COSMETIC COMPOSITION FOR IMPROVING SKIN CONDITIONS COMPRISING FUSION PROTEIN INCLUDING SKIN PENETRATION ENHANCING PEPTIDE” (LG HOUSEHOLD & HEALTH CARE LTD., priority 2017, published 2020).

Experiments:
[1] = test system: skin keratinocytes; assay: Keratinocyte growth (skin barrier strengthening), Cell Counter Kit-8; type: cell-based; settings: 100 ng/mL T-IGF-1 or IGF-1, one day; control = 100
Procedure: (§1) Specifically, skin keratinocytes were cultured in a 96-well plate for one day to obtain cultures at a density of 6,000 cells per well. The cultures were washed with PBS and cultured in a serum-free DMEM medium for one day. The cells were washed with PBS again and cultured in a serum-free DMEM medium supplemented with 100 ng/mL T-IGF-1 or IGF-1 for one day. The cultures were obtained therefrom and a difference between proliferated amounts of cells was quantitively analyzed using the Cell Counter Kit-8 (Dojindo). Here, skin keratinocytes cultured in a serum-free DMEM medium without T-IGF-1 or IGF-1 were used as a control (Table 14).
Specifically, skin keratinocytes were cultured in a 96-well plate for 24 hours to obtain cultures at a density of 6,000 cells per well.
as §1, with “The” for “Specifically, skin keratinocytes were cultured in a 96-well plate for one day to obtain cultures at a density of 6,000 cells per well. The”, “T-KGF” for “T-IGF-1”, “KGF” for “IGF-1”, “18).” for “14).”

[2] = Skin penetrability of growth factor fusion proteins (Franz glass cell, ELISA); type: in vitro ADME, porcine; settings: for Penetrated amount (%): 2 μg, 16 hours
Procedure: (§2) Specifically, porcine skin (thickness: 0.7 mm, Medikinetics) was placed between upper and lower ends of Franz glass cell (standard diameter: 9 mm, Receiver 5 mL, Permegear), and TBS (50 mM Tris pH 7.5, 150 mM NaCl) including 1% BSA and 0.01% Tween 20 was prepared. Then, 500 μL of the TBS was applied to the upper end of the glass cell (Donor chamber), and 5 mL of the TBS was applied to the lower end of the glass cell, (Receiver chamber). Subsequently, 2 μg of PDGFa or T-PDGFa was applied to the upper end of the glass cell, followed by reaction for 16 hours. Then, a concentration of PDGFa or T-PDGFa was quantitatively analyzed using the ELISA kit (R&D Systems), and a relative amount of T-PDGFa to PDGFa was calculated as a penetrated amount (Table 7).
Specifically, porcine skin (thickness: 0.7 mm, Medikinetics) was placed between upper and lower ends of Franz glass cell (standard diameter: 9 mm, Receiver 5 mL, Permegear), and TBS (50 mM Tris pH 7.5, 150 mM NaCl) including 1% BSA and 0.01% Tween 20 was prepared. Then, 500 μL of the TBS was applied to the upper end of the glass cell (Donor chamber), and 5 mL of the TBS was applied to the lower end of the glass cell, (Receiver chamber).
as §2, with “IGF-1” for “PDGFa”, “T-IGF-1” for “T-PDGFa”, “16).” for “7).”
as §2, with “KGF” for “PDGFa”, “T-KGF” for “T-PDGFa”, “20).” for “7).”
as §2, with “Tβ4” for “PDGFa”, “T-Tβ4” for “T-PDGFa”, “24).” for “7).”

[3] = test system: dermal fibroblasts; assay: Collagen production in dermal fibroblasts (ELISA); type: cell-based, human; settings: 10 ng/mL, serum-free DMEM, two days; control = 100
Procedure: Specifically, dermal fibroblasts were inoculated onto a 24-well plate and cultured for 24 hours to obtain cultures having a saturation degree of 70 to 80%. The cultures were washed with PBS and cultured in a serum-free DMEM medium including 10 ng/mL T-PDGFa or PDGFa for two days. A supernatant was obtained therefrom and the amount of collagen produced and released in the culture solution was quantitively analyzed using an ELISA kit (R&D Systems) (Table 4).

[4] = test system: human umbilical vein endothelial cells; assay: Endothelial cell proliferation, Cell Counter Kit-8; type: cell-based; settings: for Proliferation (%): 100 ng/mL T-Tβ4 or Tβ4, serum-free M199, one day, control = 100
Procedure: Specifically, human umbilical vein endothelial cells were inoculated onto a 96-well plate and cultured for 24 hours to obtain cultures at a density of 5,000 cells per well. The cultures were washed with PBS and cultured in a serum-free M199 medium for 16 hours. […] The cultures were obtained therefrom and a difference between proliferated amounts of cells was quantitively analyzed using the Cell Counter Kit-8 (Dojindo).
Specifically, human umbilical vein endothelial cells were inoculated onto a 96-well plate and cultured for 24 hours to obtain cultures at a density of 5,000 cells per well. The cultures were washed with PBS and cultured in a serum-free M199 medium for 16 hours. The cells were washed with PBS again and cultured in a serum-free M199 medium supplemented with 100 ng/mL T-Tβ4 or Tβ4 for one day. The cultures were obtained therefrom and a difference between proliferated amounts of cells was quantitively analyzed using the Cell Counter Kit-8 (Dojindo). Here, human umbilical vein endothelial cells cultured in a serum-free M199 medium without T-Tβ4 or Tβ4 were used as a control (Table 22).

## IGF-1: insulin-like growth factor-1 having an amino acid sequence of SEQ ID NO: 41
[1]
  Production (%) (keratinocyte growth): 250 ± 20%
[2]; relative to IGF-1
  Penetrated amount (%): 100 ± 14%

## PDGFa: platelet-derived growth factor subunit a having an amino acid sequence of SEQ ID NO: 35
[3]
  Production (%) of collagen: 264 ± 17%
[2]; relative to PDGFa
  Penetrated amount (%): 100 ± 29%

## T-Tβ4: SEQ ID NO: 1 peptide C-terminal linked to N-terminal of Tβ4 via GG linker (NGSLNTHLAPILGGSDKPDMAEIEKFDKSKLKKTETQEKNPLPSKETIEQEKQAGES; Synthetic Fusion protein of T-T beta 4)
[4]
  Proliferation (%): 165 ± 17%
[4]; human umbilical vein endothelial cells, 100 ng/mL
  cell proliferation effect compared with the unfused protein: same level
[2]; relative to Tβ4
  Penetrated amount (%): 310 ± 28%
[2]; summary of Tables 7, 12, 16, 20, 24
  skin penetrability compared with the unfused protein: about three times higher

## Tβ4: thymosin beta 4 having an amino acid sequence of SEQ ID NO: 47
[4]
  Proliferation (%): 180 ± 8%
[2]; relative to Tβ4
  Penetrated amount (%): 100 ± 21%
